Experiments:
Assay type in all cases: biochemical
[1] = target: p110γ (Homo sapiens, UniProt P48736); assay: Transcreener KINASE Assay, kinase inhibition of p110γ; conditions: for PI3Kγ IH % @ 1 uM: 1 uM test compound; for IC50: read-out: PI3Kγ IC50
In short: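 Recombinant PI3K isoforms (p85α complexes or p110γ alone) reacted 80 min at room temperature, then ADP detection mix added for 60 min. ADP formation read by far-red competitive fluorescence polarization immunoassay; IC50 by curve fitting.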

[2] = target: p110δ/p85α (Homo sapiens, UniProt O00329); assay: Transcreener KINASE Assay, kinase inhibition of p110δ/p85α; conditions: for PI3Kδ IH % @ 1 uM: 1 uM test compound; for IC50: read-out: PI3Kδ IC50
In short: (§1)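 Kinase reactions run 80 min at room temperature, pH buffered with 50 mM HEPES plus 3 mM MgCl2 and 0.03% CHAPS; the PIP2/ATP mix added was 30 uM/10 uM. Generated ADP is then read by FP immunoassay.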

[3] = target: p110β/p85α (Homo sapiens, UniProt P42338); assay: Transcreener KINASE Assay, kinase inhibition of p110β/p85α; conditions: for PI3Kβ IH % @ 1 uM: 1 uM test compound; for IC50: read-out: PI3Kβ IC50
In short: as §1

Sequence of p110γ (P48736 whole entry, canonical isoform): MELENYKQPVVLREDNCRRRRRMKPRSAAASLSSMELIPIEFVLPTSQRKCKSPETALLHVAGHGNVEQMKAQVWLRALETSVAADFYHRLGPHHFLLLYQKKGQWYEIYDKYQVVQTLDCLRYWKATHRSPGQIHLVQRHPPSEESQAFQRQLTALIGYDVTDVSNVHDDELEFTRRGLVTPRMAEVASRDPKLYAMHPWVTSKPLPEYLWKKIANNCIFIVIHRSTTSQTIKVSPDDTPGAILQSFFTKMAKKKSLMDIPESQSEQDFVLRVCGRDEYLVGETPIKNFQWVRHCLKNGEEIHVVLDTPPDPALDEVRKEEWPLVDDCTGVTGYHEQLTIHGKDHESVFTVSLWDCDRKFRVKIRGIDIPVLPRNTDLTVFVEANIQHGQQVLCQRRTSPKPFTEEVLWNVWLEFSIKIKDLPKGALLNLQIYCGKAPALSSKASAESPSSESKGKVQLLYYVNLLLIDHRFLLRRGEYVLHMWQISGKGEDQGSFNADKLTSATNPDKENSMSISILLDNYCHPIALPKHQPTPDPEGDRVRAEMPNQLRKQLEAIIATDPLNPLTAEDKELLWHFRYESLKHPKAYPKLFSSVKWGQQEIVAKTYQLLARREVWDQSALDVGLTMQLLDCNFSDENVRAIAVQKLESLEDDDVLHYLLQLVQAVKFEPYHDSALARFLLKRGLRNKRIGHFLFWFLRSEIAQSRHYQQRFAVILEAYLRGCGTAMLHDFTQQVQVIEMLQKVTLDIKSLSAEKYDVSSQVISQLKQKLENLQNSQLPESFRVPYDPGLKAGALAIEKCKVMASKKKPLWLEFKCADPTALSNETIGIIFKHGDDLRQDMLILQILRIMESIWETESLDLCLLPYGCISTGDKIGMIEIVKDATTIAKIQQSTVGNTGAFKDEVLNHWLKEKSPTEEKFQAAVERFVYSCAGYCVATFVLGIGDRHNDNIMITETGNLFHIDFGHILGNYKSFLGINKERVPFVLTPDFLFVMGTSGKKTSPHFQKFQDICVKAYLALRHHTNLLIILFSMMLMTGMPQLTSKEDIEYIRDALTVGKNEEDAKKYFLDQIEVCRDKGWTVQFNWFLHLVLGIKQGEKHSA
Sequence of p110β/p85α (P42338 whole entry): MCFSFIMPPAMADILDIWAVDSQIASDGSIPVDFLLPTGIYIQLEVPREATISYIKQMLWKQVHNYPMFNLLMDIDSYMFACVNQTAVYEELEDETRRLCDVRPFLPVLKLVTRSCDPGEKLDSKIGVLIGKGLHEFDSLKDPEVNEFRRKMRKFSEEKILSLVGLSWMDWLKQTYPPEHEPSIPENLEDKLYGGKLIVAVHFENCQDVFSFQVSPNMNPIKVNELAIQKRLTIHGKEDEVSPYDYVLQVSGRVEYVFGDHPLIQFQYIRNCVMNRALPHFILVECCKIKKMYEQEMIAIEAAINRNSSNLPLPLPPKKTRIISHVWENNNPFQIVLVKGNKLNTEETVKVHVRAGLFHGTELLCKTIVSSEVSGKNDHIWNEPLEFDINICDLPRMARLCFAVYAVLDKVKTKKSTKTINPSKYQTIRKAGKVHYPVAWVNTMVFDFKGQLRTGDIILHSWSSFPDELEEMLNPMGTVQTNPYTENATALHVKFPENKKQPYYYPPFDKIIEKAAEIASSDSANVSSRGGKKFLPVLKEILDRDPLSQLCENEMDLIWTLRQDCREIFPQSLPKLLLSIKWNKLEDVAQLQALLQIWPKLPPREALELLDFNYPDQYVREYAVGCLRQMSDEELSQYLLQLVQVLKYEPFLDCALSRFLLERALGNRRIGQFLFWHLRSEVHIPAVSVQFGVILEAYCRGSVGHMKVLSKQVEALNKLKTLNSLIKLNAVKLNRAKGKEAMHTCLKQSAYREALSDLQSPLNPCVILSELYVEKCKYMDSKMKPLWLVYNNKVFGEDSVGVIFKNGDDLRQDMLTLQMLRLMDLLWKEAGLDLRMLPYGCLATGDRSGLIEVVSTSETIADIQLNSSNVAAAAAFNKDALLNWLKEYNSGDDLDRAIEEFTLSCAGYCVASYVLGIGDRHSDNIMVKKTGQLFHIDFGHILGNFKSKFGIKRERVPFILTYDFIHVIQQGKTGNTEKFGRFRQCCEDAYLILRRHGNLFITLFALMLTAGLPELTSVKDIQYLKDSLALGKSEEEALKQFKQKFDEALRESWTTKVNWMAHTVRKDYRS
Sequence of p110β/p85α (P27986 2-724 partner): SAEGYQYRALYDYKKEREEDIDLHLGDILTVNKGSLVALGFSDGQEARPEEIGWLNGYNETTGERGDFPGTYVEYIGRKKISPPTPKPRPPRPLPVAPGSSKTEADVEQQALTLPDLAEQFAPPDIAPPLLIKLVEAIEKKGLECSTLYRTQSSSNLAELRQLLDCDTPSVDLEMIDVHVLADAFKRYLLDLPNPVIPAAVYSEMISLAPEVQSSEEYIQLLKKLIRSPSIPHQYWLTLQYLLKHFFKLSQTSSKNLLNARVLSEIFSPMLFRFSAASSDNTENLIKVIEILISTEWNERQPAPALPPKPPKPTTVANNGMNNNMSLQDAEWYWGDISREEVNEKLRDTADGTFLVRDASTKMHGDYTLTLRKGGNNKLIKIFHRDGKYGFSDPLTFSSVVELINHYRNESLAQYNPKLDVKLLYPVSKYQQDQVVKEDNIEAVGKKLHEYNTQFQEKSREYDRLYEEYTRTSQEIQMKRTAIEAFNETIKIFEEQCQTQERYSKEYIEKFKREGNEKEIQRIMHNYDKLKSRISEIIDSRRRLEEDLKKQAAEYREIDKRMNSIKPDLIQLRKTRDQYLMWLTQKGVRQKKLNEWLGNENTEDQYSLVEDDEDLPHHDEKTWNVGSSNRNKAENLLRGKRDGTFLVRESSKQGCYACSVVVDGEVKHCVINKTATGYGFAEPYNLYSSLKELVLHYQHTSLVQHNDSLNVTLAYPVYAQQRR
Sequence of p110δ/p85α (O00329 whole entry): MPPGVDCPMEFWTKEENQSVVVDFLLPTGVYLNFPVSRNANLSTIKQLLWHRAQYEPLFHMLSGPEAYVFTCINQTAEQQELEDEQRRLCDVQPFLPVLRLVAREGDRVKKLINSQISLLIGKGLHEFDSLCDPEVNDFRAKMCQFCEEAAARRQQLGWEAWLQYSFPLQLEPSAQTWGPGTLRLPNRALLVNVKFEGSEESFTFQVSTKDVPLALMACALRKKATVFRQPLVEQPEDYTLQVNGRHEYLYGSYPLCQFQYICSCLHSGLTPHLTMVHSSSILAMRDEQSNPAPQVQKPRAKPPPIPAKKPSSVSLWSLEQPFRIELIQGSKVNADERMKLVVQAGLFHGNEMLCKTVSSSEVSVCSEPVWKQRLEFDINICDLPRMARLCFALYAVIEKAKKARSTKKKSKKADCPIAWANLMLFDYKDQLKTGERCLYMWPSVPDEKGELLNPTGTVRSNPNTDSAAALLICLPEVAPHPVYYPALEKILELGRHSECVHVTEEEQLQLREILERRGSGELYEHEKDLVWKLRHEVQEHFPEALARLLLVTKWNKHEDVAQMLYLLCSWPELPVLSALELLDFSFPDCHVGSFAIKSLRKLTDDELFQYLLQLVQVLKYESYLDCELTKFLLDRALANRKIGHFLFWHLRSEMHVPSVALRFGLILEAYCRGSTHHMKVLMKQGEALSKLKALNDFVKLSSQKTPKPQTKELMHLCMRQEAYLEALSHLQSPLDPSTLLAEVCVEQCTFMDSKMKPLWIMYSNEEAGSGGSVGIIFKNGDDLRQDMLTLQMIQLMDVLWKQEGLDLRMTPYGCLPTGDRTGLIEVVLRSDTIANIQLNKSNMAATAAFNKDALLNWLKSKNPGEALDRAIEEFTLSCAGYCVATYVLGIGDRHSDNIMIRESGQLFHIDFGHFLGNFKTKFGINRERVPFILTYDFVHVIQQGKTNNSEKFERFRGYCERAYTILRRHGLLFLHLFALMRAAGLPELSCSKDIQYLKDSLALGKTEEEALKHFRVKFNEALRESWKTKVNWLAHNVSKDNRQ
Sequence of p110δ/p85α (P27986 whole entry partner): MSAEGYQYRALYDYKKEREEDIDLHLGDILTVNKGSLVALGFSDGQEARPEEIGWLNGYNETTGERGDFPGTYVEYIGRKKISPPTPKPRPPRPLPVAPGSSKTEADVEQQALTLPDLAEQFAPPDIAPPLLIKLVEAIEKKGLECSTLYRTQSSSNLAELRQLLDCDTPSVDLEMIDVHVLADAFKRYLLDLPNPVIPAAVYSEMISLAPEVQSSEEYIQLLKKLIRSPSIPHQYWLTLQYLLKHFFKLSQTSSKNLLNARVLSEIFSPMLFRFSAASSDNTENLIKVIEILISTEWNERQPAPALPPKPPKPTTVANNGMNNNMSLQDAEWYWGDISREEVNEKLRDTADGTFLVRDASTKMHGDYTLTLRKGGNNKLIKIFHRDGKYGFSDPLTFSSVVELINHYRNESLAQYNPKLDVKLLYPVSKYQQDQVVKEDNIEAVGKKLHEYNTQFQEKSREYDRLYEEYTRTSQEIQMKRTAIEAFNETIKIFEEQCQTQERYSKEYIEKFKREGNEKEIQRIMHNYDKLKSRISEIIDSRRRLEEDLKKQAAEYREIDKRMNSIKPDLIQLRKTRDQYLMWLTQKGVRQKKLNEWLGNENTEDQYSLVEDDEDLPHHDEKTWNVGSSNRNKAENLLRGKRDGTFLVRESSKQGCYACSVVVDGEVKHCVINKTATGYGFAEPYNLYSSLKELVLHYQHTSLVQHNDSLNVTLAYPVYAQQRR

SMILES | PI3Kγ IH % @ 1 uM [1] [%] | IC50 [1] [nM] | PI3Kδ IH % @ 1 uM [2] [%] | IC50 [2] [nM] | PI3Kβ IH % @ 1 uM [3] [%] | IC50 [3] [nM]
C[S+]([O-])c1c[nH]c2ncnc(N3CC[C@H]3c3nn4ccc(Cl)c4c(=O)n3-c3ccc(F)cc3)c12 (stereo partly drawn) [Compound 199] | 94.6 | 34 | 59.5 | 2000 | 17.1 | 
CNc1ncnc(N2CCC[C@H]2c2nn3ccc(Cl)c3c(=O)n2-c2ccccc2)n1 [Compound 200] | 93.4 | 190 | 90.9 | 196 | 28.2 | 
Cc1nc(N)nc(N2CCC[C@H]2c2nn3ccc(Cl)c3c(=O)n2-c2ccccc2)n1 [Compound 201] | >100 | 49 | >100 | 19 | 25.3 | 
O=c1c2c(Cl)ccn2nc([C@@H]2CCCCN2c2ncnc3[nH]cnc23)n1-c1ccccc1 [Compound 203] | 65.3 |  | 94.6 | 100 | 23.3 | 
C[S+]([O-])c1c[nH]c2ncnc(N3CC[C@H]3c3nn4ccc(F)c4c(=O)n3-c3ccccc3)c12 (stereo partly drawn) [Compound 204] | 84.2 | 250 | 85.1 | 109 | 28.9 | 
Cc1nc(N)nc(N2CC[C@H]2c2nn3ccc(Cl)c3c(=O)n2-c2ccccc2)n1 [Compound 205] | 76.1 | 229 | 76.1 | 74 | 21.6 | 
N#Cc1cnc(N)nc1N1CCC[C@H]1c1nn2ccc(Cl)c2c(=O)n1-c1ccccc1 [Compound 207] | >100 |  | >100 | 1 | 80.4 | 298
CC(=O)c1c[nH]c2ncnc(N3CCC[C@H]3c3nn4ccc(Cl)c4c(=O)n3-c3ccc(F)cc3)c12 [Compound 208] | 92.2 | 3 | 97.4 | 4 | 81.7 | 89
C[S+]([O-])c1c[nH]c2ncnc(N3CCC[C@H]3c3nn4ccc(Cl)c4c(=O)n3-c3ccc(F)cc3)c12 (stereo partly drawn) [Compound 209] | 89.6 | 30 | 94.2 | 12 | 53.5 | 
CC(=O)c1c[nH]c2ncnc(N3CCC[C@H]3c3nn4ccc(Cl)c4c(=O)n3-c3cccc(F)c3)c12 [Compound 210] | 92.0 |  | 98.6 | 2 | 69.1 | 191
CC(=O)c1c[nH]c2ncnc(N3CCC[C@H]3c3nn4ccc(Cl)c4c(=O)n3-c3ccccc3)c12 [Compound 211] | 92.2 |  | 98.4 | 0.5 | 88.3 | 51
N#Cc1cnc(N)nc1N1CC[C@H]1c1nn2ccc(Cl)c2c(=O)n1-c1ccccc1 [Compound 212] | >100 |  | 95.3 | 12 | 37.0 | 
O=c1c2c(Cl)ccn2nc([C@@H]2C[C@H](F)CN2c2ncnc3[nH]cnc23)n1-c1cccc(F)c1 [Compound 214] | >100 | 12 | 99.7 | 1 | 65.7 | 271
Nc1ncc(F)c(N2CCC[C@H]2c2nn3ccc(Cl)c3c(=O)n2-c2ccccc2)n1 [Compound 215] | 88.1 | 135 | 98.5 | 52 | 32.8 | 
CC(=O)c1c[nH]c2ncnc(N3C[C@@H](F)C[C@H]3c3nn4ccc(Cl)c4c(=O)n3-c3cccc(F)c3)c12 [Compound 216] | 91.8 | 3 | 96.5 | 2 | 65.1 | 
CC(=O)c1c[nH]c2ncnc(N3CCC[C@H]3c3nn4ccc(F)c4c(=O)n3-c3ccccc3)c12 [Compound 218] | 95.7 |  | 97.3 | 2 | 85.0 | 165
C[S+]([O-])c1c[nH]c2ncnc(N3CCC[C@H]3c3nn4ccc(F)c4c(=O)n3-c3ccccc3)c12 (stereo partly drawn) [Compound 219] | 87.4 | 14 | 98.4 | 3 | 75.1 | 358
O=c1c2c(Cl)ccn2nc([C@@H]2CCCN2c2ncnc3[nH]nnc23)n1-c1ccccc1 [Compound 220] | 54.8 |  | 84.8 | 242 | 25.1 | 
CSc1n[nH]c2ncnc(N3CCC[C@H]3c3nn4ccc(Cl)c4c(=O)n3-c3ccccc3)c12 [Compound 221] | 88.6 | 24 | 68.0 |  | 16.3 | 
CSc1n[nH]c2ncnc(N3CC[C@H]3c3nn4ccc(Cl)c4c(=O)n3-c3ccccc3)c12 [Compound 222] | 88.1 | 21 | 43.0 |  | 40.5 | 
Nc1ncc(Cl)c(N2CC[C@H]2c2nn3ccc(Cl)c3c(=O)n2-c2ccccc2)n1 [Compound 223] | 71.6 |  | 81.0 | 59 | 22.9 | 
C#Cc1cnc(N)nc1N1CC[C@H]1c1nn2ccc(Cl)c2c(=O)n1-c1ccccc1 [Compound 224] | >100 |  | 85.9 | 60 | 22.7 | 
N#Cc1c[nH]c2ncnc(N3C[C@@H](F)C[C@H]3c3nn4ccc(F)c4c(=O)n3-c3ccccc3)c12 [Compound 225] | >100 | 5 | >100 | 1 | 96.3 | 54
COCCNC(=O)c1c[nH]c2ncnc(N3CCC[C@H]3c3nn4ccc(Cl)c4c(=O)n3-c3ccccc3)c12 [Compound 226] | >100 | 30 | 98.7 | 9 | 41.8 | 
N#Cc1cnc(N)nc1N1C[C@@H](F)C[C@H]1c1nn2ccc(F)c2c(=O)n1-c1ccccc1 [Compound 227] | >100 | 18 | >100 | 5 | 59.6 | 
COCCNC(=O)c1c[nH]c2ncnc(N3CC[C@H]3c3nn4ccc(Cl)c4c(=O)n3-c3ccccc3)c12 [Compound 228] | 59.9 |  | 74.6 | 176 | 13.8 | 
N#Cc1cnc(N)nc1N1C[C@@H](F)C[C@H]1c1nn2ccc(Cl)c2c(=O)n1-c1ccccc1 [Compound 229] | 90.4 | 2 | 97.6 | 3 | 81.5 | 262

Source: US20150307520A1, “NOVEL HETEROARYL AND HETEROCYCLE COMPOUNDS, COMPOSITIONS AND METHODS THEREOF” (HUTCHISON MEDIPHARMA LIMITED, priority 2012, published 2015)
